Data as given in patent US8415469B2, “Compounds and methods for kinase modulation, and indications therefor” (Plexxikon Inc., priority 2005, dated 2013).
pIC50: −log10 of the molar value.

Tests used:
Format in all cases: biochemical
[1] = target: T1, FGFR1 (Homo sapiens, UniProt P11362, C488A/C584S); experiment: AlphaScreen kinase assay, FGFR1; conditions: read-out: IC50, activity toward kinase FGFR
T1 construct: P1351.pET N6 BI-PTP FGFR A458-E765-X C488A, C584S; made in house; host or cells: E. coli (PTP1B co-expressed)
T1 sequence (P11362 458-765 C488A/C584S): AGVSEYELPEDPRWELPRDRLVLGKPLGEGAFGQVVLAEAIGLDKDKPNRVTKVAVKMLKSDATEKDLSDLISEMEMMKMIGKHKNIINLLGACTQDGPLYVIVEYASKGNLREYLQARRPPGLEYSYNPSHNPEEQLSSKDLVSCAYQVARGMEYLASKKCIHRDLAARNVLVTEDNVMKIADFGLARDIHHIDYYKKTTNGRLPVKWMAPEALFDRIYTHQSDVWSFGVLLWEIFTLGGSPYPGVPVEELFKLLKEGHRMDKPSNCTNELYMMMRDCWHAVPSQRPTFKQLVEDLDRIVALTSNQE

[2] = target: T2, B-Raf V600E (Homo sapiens, UniProt P15056, V600E); experiment: AlphaScreen kinase assay, B-Raf V600E; conditions: read-out: IC50, activity toward kinase B-Raf V600E
T2 construct: P4254. pFastBacBD-CDC37 BRAF D437-K722-X, V600E; His6 with pFastBac HT leader (TEV site) (N); made in house; host or cells: Sf9 (baculovirus; chaperone CDC37 co-expressed)
T2 sequence (P15056 with tags, fused parts or gaps V600E): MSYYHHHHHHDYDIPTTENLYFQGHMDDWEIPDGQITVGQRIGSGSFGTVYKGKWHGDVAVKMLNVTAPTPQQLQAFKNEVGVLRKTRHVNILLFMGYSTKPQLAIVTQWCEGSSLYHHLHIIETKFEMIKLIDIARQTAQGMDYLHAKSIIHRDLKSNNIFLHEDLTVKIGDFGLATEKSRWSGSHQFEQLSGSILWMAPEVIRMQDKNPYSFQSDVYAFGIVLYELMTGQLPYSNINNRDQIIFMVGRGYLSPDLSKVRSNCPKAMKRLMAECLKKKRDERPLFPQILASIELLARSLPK

[3] = target: T3, Btk (Homo sapiens, UniProt Q06187); experiment: Z'-Lyte FRET kinase assay (Invitrogen), Btk; conditions: read-out: IC50, activity toward kinase Btk
T3 construct: purchased Invitrogen (assay run by Invitrogen)
T3 sequence (Q06187 whole entry): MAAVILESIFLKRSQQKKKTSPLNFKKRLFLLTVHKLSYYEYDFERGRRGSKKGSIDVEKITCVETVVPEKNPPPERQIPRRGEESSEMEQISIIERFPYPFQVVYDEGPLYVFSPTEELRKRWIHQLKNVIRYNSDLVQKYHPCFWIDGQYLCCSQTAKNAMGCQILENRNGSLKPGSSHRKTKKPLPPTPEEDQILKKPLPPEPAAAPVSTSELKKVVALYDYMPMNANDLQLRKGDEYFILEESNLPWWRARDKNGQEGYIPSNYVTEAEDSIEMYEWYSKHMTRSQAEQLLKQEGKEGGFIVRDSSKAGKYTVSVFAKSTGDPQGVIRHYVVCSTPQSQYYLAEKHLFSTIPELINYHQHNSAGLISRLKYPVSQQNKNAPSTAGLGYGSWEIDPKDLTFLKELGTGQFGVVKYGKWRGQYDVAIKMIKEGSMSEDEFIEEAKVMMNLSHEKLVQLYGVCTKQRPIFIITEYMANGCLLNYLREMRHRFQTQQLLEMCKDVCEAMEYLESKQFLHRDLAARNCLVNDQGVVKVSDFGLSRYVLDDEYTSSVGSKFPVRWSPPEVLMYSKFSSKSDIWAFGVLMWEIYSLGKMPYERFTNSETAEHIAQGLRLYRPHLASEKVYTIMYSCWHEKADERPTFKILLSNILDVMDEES

[4] = target: T4, Ret (Homo sapiens, UniProt P07949); experiment: AlphaScreen kinase assay, Ret; conditions: read-out: IC50, activity toward kinase Ret
T4 construct: P1378.pET-SF BI-PTP RET H661-R1012 HIS; made in house
T4 sequence (P07949 with tags, fused parts or gaps): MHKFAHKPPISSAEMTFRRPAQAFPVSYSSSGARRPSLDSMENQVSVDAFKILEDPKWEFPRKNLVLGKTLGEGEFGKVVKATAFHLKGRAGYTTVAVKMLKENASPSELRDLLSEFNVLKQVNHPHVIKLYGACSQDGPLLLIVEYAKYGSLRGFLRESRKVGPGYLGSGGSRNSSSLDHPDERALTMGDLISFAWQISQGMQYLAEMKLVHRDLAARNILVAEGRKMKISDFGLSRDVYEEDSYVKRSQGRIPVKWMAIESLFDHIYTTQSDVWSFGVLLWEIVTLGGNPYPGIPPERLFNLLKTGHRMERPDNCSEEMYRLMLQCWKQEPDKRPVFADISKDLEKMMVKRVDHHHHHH

[5] = target: T5, IKK beta (Homo sapiens, UniProt O14920); experiment: AlphaScreen kinase assay, IKK beta; conditions: read-out: IC50, activity toward kinase IKK beta
T5 sequence (O14920 1-756): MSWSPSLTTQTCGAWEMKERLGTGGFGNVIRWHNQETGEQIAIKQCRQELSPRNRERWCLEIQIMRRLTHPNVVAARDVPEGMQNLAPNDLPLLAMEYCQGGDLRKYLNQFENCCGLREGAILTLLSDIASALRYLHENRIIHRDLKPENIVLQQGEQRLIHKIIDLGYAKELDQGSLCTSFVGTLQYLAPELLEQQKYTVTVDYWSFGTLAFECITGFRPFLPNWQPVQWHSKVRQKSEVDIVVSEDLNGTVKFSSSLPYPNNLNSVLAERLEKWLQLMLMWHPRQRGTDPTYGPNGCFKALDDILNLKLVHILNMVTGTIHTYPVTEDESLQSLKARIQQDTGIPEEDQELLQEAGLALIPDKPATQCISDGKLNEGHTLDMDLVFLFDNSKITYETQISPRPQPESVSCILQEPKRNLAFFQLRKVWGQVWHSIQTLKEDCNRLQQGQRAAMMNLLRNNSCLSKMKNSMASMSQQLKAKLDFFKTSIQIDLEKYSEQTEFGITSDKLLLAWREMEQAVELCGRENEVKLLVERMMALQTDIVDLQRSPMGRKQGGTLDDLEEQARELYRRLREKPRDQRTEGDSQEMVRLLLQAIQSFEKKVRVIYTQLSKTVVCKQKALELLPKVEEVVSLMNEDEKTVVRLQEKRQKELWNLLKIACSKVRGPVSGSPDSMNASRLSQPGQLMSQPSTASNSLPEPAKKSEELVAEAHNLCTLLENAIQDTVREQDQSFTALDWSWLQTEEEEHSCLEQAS

[6] = target: T6, Kdr (Homo sapiens, UniProt P35968); experiment: Z'-Lyte FRET kinase assay (Invitrogen), Kdr; conditions: read-out: IC50, activity toward kinase Kdr
T6 construct: purchased Invitrogen (assay run by Invitrogen)
T6 sequence (P35968 20-1356): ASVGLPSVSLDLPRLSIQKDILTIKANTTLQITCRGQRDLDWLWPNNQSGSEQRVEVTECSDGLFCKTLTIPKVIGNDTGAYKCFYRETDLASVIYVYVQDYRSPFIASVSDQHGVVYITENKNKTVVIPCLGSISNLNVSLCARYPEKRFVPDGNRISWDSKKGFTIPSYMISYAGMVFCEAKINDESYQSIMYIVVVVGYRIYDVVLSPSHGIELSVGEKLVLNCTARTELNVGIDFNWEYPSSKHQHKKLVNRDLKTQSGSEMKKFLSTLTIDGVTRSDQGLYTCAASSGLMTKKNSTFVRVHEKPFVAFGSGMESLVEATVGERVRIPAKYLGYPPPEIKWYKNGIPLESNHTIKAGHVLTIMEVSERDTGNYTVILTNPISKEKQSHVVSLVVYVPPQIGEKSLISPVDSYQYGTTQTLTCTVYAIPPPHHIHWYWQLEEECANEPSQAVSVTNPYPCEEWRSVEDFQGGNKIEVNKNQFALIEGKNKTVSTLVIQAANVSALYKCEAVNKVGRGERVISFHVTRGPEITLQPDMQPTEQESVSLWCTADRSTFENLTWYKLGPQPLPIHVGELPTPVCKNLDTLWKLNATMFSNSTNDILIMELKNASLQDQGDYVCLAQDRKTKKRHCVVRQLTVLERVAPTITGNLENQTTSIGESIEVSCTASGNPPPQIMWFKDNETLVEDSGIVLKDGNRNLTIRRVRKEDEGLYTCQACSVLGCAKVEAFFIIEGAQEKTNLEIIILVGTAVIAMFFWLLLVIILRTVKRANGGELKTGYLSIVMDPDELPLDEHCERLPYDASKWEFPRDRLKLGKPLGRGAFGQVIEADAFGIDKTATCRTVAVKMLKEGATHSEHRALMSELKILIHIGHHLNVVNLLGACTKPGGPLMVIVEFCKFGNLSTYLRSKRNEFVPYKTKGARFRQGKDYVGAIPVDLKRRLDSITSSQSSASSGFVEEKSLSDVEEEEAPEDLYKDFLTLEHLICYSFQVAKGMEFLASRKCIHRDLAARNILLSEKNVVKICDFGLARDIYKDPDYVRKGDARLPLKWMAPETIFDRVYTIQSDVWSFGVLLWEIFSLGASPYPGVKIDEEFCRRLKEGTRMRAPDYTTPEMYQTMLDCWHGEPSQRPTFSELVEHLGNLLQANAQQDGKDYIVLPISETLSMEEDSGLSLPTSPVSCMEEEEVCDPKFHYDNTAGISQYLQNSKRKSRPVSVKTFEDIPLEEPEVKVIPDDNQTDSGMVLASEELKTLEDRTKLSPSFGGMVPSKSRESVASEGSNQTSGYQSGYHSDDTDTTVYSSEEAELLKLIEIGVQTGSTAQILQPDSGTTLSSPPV

[7] = target: Akt3 (Homo sapiens, UniProt Q9Y243); experiment: AlphaScreen kinase assay, Akt3; conditions: read-out: IC50, activity toward kinase Akt3
Akt3, sequence (Q9Y243 whole entry): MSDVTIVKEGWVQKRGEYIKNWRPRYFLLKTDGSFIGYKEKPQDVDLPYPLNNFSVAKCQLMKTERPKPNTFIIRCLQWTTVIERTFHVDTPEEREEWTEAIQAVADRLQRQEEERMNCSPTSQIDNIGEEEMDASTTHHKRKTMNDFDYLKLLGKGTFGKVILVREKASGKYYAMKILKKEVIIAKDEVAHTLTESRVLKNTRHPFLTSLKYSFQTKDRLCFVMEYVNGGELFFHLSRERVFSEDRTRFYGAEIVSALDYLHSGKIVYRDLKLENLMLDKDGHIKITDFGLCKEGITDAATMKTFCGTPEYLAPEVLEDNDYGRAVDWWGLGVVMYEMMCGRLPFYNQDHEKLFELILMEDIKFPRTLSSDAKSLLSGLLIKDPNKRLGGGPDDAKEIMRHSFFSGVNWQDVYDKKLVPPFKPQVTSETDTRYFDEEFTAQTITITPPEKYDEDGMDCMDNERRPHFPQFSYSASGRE
Outline: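 Biotinylated peptide substrate phosphorylation detected by AlphaScreen with phospho-specific antibody acceptor beads and streptavidin donor beads. Compounds tested as 8-point 1:3 serial dilutions from 20 mM DMSO stocks.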

[8] = target: T7, Flt1 (Homo sapiens, UniProt P17948); experiment: AlphaScreen kinase assay, Flt1; conditions: read-out: IC50, activity toward kinase Flt1
T7 construct: P1826.pETN6 BI-PTP FLT1 M799-D1165-X WT; His6 (N); made in house; host or cells: E. coli (PTP1B co-expressed)
T7 sequence (P17948 with tags, fused parts or gaps): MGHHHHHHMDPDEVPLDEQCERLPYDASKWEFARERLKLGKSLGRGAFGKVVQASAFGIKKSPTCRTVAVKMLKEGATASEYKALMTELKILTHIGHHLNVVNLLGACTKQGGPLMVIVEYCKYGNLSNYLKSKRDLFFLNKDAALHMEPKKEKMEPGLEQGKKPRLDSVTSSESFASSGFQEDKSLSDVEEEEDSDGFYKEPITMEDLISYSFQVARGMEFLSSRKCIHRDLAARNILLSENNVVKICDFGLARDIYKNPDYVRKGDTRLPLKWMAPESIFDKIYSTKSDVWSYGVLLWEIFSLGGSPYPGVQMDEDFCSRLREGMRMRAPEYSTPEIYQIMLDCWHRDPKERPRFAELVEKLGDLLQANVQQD

[9] = target: T8, Stk6 (Homo sapiens, UniProt O14965); experiment: Z'-Lyte FRET kinase assay (Invitrogen), Stk6; conditions: read-out: IC50, activity toward kinase Stk6
T8 construct: purchased Invitrogen (Carlsbad, Calif.), screening service
T8 sequence (O14965 1-403): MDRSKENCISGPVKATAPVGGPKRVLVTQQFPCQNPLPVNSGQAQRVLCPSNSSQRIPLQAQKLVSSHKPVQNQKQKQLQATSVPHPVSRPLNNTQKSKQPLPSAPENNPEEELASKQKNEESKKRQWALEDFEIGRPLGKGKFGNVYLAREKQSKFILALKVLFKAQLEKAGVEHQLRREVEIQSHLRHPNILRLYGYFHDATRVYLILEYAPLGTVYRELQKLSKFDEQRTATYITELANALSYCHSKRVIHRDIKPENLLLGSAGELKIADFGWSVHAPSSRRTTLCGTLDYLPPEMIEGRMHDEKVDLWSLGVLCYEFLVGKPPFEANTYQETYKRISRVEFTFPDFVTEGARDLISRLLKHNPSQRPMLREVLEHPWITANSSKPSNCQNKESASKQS

[10] = target: T9, Kit (Homo sapiens, UniProt P10721); experiment: AlphaScreen kinase assay, Kit; conditions: read-out: IC50, activity toward kinase Kit
T9 construct: P1332.N6 BI PTP KIT M552-K948-X COD; His6 (N); made in house; host or cells: E. coli (PTP1B co-expressed)
T9 sequence (P10721 with tags, fused parts or gaps): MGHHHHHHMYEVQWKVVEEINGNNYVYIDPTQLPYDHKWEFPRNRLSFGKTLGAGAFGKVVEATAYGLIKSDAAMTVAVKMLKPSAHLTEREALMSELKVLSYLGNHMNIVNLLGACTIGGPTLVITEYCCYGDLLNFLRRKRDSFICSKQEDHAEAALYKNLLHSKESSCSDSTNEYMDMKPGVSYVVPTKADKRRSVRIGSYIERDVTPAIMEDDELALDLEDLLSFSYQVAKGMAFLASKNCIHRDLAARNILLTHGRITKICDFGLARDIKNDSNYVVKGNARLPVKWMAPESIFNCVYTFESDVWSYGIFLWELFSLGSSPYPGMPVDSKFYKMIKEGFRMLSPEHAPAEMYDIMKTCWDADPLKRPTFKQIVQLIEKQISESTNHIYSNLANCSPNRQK

[11] = target: T10, Jnk3 (Homo sapiens, UniProt P53779); experiment: AlphaScreen kinase assay, Jnk3; conditions: read-out: IC50, activity toward kinase Jnk3
T10 construct: purchased Upstate Biotechnology
T10 sequence (P53779 whole entry): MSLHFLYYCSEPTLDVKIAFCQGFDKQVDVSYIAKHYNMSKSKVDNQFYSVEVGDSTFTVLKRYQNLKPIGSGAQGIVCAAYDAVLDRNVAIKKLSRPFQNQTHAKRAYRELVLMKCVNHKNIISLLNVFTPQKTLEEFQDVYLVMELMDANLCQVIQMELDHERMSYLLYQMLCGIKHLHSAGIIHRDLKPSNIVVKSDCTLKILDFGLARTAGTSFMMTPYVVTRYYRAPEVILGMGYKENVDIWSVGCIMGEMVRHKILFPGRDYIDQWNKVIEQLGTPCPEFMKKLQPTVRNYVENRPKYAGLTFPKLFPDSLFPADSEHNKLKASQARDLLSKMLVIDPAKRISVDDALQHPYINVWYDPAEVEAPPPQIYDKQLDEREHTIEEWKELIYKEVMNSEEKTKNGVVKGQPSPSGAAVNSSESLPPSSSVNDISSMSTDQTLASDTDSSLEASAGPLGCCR

[12] = target: T11, B-Raf (Homo sapiens, UniProt P15056); experiment: AlphaScreen kinase assay, B-Raf; conditions: read-out: IC50, activity toward kinase B-Raf
T11 construct: purchased Upstate Biotechnology

[13] = target: MAP4K4 (Homo sapiens, UniProt O95819); experiment: AlphaScreen kinase assay, MAP4K4; conditions: read-out: IC50, activity toward kinase MAP4K4
[14] = target: T12, c-Raf-1 (Homo sapiens, UniProt P04049); experiment: AlphaScreen kinase assay, c-Raf-1; conditions: read-out: IC50, activity toward kinase c-Raf-1
T12 construct: purchased Upstate Biotechnology
T12 sequence (P04049 whole entry): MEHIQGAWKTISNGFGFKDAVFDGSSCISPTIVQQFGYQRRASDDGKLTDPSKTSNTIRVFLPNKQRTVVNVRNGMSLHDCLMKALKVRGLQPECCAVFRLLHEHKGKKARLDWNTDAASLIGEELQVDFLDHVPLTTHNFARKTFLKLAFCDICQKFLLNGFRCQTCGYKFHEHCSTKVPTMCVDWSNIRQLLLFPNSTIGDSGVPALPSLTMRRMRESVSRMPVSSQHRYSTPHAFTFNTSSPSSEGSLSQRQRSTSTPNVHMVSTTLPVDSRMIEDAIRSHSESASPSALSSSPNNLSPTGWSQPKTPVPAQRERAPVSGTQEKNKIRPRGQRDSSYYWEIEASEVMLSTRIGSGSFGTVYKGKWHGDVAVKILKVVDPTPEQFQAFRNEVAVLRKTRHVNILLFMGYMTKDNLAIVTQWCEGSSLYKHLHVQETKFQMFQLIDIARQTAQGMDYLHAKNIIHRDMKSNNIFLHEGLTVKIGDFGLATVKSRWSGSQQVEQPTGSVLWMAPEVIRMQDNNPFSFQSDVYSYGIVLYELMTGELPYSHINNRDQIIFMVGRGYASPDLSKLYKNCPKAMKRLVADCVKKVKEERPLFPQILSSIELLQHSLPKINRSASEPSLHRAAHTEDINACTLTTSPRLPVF

Measured: pIC50

COc1cccc(C(=O)c2c[nH]c3nccc(-c4ccc(C(N)=O)cc4)c23)c1 [Compound P-0073]
≥ 5.00: [1] | [2] | [3] | [4] | [5] | [6]

Nc1cccc(C(=O)c2c[nH]c3ncccc23)c1 [Compound P-0096]
≥ 5.00: [1] | [4] | [5] | [6]

Clc1ccc(-c2ccnc3[nH]ccc23)cn1 [Compound P-0127]
≥ 5.00: [7] | [8] | [9] | [5] | [10] | [6]

c1cc2cc(-c3ccsc3)cnc2[nH]1 [Compound P-0133]
≥ 5.00: [9] | [5] | [10] | [6] | [11]

Cc1nc(-c2ccnc3[nH]ccc23)no1 [Compound P-0163]
≥ 5.00: [9] | [5] | [6]

N#CCc1ccc(-c2c[nH]c3ncccc23)cc1 [Compound P-0164]
≥ 5.00: [9] | [5] | [6]

Fc1cc(F)cc(-c2ccnc3[nH]cc(Sc4ccc(Cl)cc4)c23)c1 [Compound P-0172]
≥ 5.00: [9] | [5] | [6]

c1csc(-c2cnc3[nH]ccc3c2)c1 [Compound P-0179]
≥ 5.00: [9] | [4] | [5] | [10] | [6] | [11]

COc1cccc(-c2c[nH]c3ncccc23)c1 [Compound P-0216]
≥ 5.00: [5] | [10] | [6]

CCS(=O)(=O)c1ccc(-c2c[nH]c3ncccc23)cc1 [Compound P-0272]
≥ 5.00: [9] | [5]

CSc1cccc(-c2c[nH]c3ncccc23)c1 [Compound P-0315]
≥ 5.00: [8] | [5] | [10]

Cc1cc(-c2c(C)[nH]c3ncccc23)ccc1F [Compound P-0376]
≥ 5.00: [5] | [6]

c1ccc2sc(-c3ccnc4[nH]ccc34)cc2c1 [Compound P-0404]
≥ 5.00: [7] | [8] | [1] | [5] | [10]

C[C@H]1CN(c2ccc(-c3ccnc4[nH]ccc34)cn2)CCN1 [Compound P-0410]
≥ 5.00: [5]

C(#Cc1ccnc2[nH]ccc12)c1ccccc1 [Compound P-0436]
≥ 5.00: [7] | [9] | [5]

c1cc(-c2ccsc2)c2cc[nH]c2n1 [Compound P-0629]
≥ 5.00: [8] | [5]

CS(=O)(=O)c1ccc(-c2cnc3[nH]ccc3c2)cc1 [Compound P-0682]
≥ 5.00: [4] | [5] | [10] | [11]

COc1ccc(-c2c[nH]c3ncccc23)cc1F [Compound P-0690]
≥ 5.00: [5] | [10]

c1ccc2oc(-c3ccnc4[nH]ccc34)cc2c1 [Compound P-0790]
≥ 5.00: [5]

CCCNS(=O)(=O)c1ccc(F)c(C(=O)c2c[nH]c3ncc(-c4cccnc4)cc23)c1F [Compound P-0896]
≥ 5.00: [12] | [1] | [2] | [13] | [5] | [14]

COc1ccc(C#Cc2ccnc3[nH]ccc23)cc1 [Compound P-0920]
≥ 5.00: [5]

CCS(=O)(=O)c1ccc(-c2c(C)[nH]c3ncccc23)cc1 [Compound P-1223]
≥ 5.00: [5]
